# Measurements as given in patent US20250179073A1, “TRICYCLIC HETEROCYCLE COMPOUNDS AS IAP ANTAGONISTS” (Ascentage Pharma (Suzhou) Co., Ltd., priority 2022, published 2025).
# Tests used:
# [1] = test system: EVSA-T cells; assay: Cell proliferation assay (CellTiter-Glo), EVSA-T; assay type: cell-based; conditions: 72 h treatment, Celltiter-Glo luminescence
# Procedure: Example 238: Cell Proliferation Assay
# MDA-MB-231 and EVSA-T cells (10000 cells/well) were plated onto 96-well plates (Corning, Cat #3917) in 95 μL of medium (RPMI-1640 containing 10% FBS and MEM containing 10% FBS, respectively). Compounds with various concentrations ([…]) were added to the wells. After treatment for 72 h, 30 μL of Celltiter-Glo reagent (Promega, Cat #G7573) was added and incubated at room temperature for 15 min, then the luminescent signal was determined using a microplate reader (Biotek, SynergyH1). The inhibitor dose-response curves were analyzed using normalized IC50 regression curve fitting with control based normalization.
# [2] = test system: MDA-MB-231 cells; assay: Cell proliferation assay (CellTiter-Glo), MDA-MB-231; assay type: cell-based; conditions: 72 h treatment, Celltiter-Glo luminescence
# Procedure, shortened: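 Compounds tested over ten concentrations ([…]) for 72 h on EVSA-T cells in MEM/10% FBS and MDA-MB-231 cells in RPMI-1640/10% FBS, seeded at 10000/well. Luminescent CellTiter-Glo readout; IC50 fitted after normalisation to controls.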
"IC50 ([2]; Homo sapiens, MDA-MB-231, 72 h) [nM]",IC50 [2] [nM],SMILES,"IC50 ([1]; Homo sapiens, EVSA-T, 72 h) [nM]",IC50 [1] [nM]
42,,"C[C@@H]1CN(CC(=O)N2CC(C)(C)c3c2cc(Cc2ccc(F)cc2)c2ncnn32)[C@@H](CN2CCOC[C@H]2C)CN1 [Example 14, 1-(4-(4-fluorobenzyl)-8,8-dimethyl-7,8-dihydro-6H-pyrrolo[2,3-e][1,2,4]triazolo[1,5-a]pyridin-6-yl)-2-((2R,5R)-5-methyl-2-(((R)-3-methylmorpholino)methyl)piperazin-1-yl)ethan-1-one]",6,
74,,"CCOC(=O)c1cn2c3c(cc(Cc4ccc(F)cc4)c2n1)N(C(=O)CN1C[C@@H](C)NC[C@@H]1CN1CCOC[C@H]1C)CC3(C)C [Example 18, ethyl 4-(4-fluorobenzyl)-8,8-dimethyl-6-(2-((2R,5R)-5-methyl-2-(((R)-3-methylmorpholino)methyl)piperazin-1-yl)acetyl)-7,8-dihydro-6H-imidazo[1,2-a]pyrrolo[2,3-e]pyridine-2-carboxylate]",14,
9,,"C[C@@H]1CN(CC(=O)N2CC(C)(C)c3c2cc(Cc2ccc(F)cc2)c2nn([C@@H]4CCOC4)c(=O)n32)[C@@H](CN2CCOC[C@H]2C)CN1 [Compound 228, 4-(4-fluorobenzyl)-8,8-dimethyl-6-(2-((2R,5R)-5-methyl-2-(((R)-3-methylmorpholino)methyl)piperazin-1-yl)acetyl)-2-((R)-tetrahydrofuran-3-yl)-2,6,7,8-tetrahydro-1H-pyrrolo[2,3-e][1,2,4]triazolo[4,3-a]pyridin-1-one]",2,
,14,"C[C@@H]1CN(CC(=O)N2CC(C)(C)c3c2cc(Cc2ccc(F)cc2)c2nn(C4CCC4O)c(=O)n32)[C@@H](CN2CCOC[C@H]2C)CN1 (stereo partly drawn) [Compound 273B, 4-(4-fluorobenzyl)-2-(2-hydroxycyclobutyl)-8,8-dimethyl-6-(2-((2R,5R)-5-methyl-2-(((R)-3-methylmorpholino)methyl)piperazin-1-yl)acetyl)-2,6,7,8-tetrahydro-1H-pyrrolo[2,3-e][1,2,4]triazolo[4,3-a]pyridin-1-one]",,1.7
30,,"C[C@@H]1CN(CC(=O)N2CC(C)(C)c3c2cc(Sc2ccc(F)cc2)c2ncnn32)[C@@H](CN2CCOC[C@H]2C)CN1 [Compound 49, 1-(4-((4-fluorophenyl)thio)-8,8-dimethyl-7,8-dihydro-6H-pyrrolo[2,3-e][1,2,4]triazolo[1,5-a]pyridin-6-yl)-2-((2R,5R)-5-methyl-2-(((R)-3-methylmorpholino)methyl)piperazin-1-yl)ethan-1-one]",5,
4,,"C[C@@H]1CN(CC(=O)N2CC(C)(C)c3c2cc(Cc2ccc(F)cc2)c2nn(Cc4ccncn4)c(=O)n32)[C@@H](CN2CCOC[C@H]2C)CN1 [Compound 246, 4-(4-fluorobenzyl)-8,8-dimethyl-6-(2-((2R,5R)-5-methyl-2-(((R)-3-methylmorpholino)methyl)piperazin-1-yl)acetyl)-2-(pyrimidin-4-ylmethyl)-2,6,7,8-tetrahydro-1H-pyrrolo[2,3-e][1,2,4]triazolo[4,3-a]pyridin-1-one]",3.5,
78,,"COc1cc(F)ccc1Cc1cc2c(n3ncnc13)C(C)(C)CN2C(=O)CN1C[C@@H](C)NC[C@@H]1CN1CCOC[C@H]1C [Compound 41, 1-(4-(4-fluoro-2-methoxybenzyl)-8,8-dimethyl-7,8-dihydro-6H-pyrrolo[2,3-e][1,2,4]triazolo[1,5-a]pyridin-6-yl)-2-((2R,5R)-5-methyl-2-(((R)-3-methylmorpholino)methyl)piperazin-1-yl)ethan-1-one]",14,
29,,"C[C@@H]1CN(CC(=O)N2CC(C)(C)c3c2cc(Cc2ccc(F)cc2)c2nn(C(C)(C)CO)c(=O)n32)[C@@H](CN2CCOC[C@H]2C)CN1 [Compound 260, 4-(4-fluorobenzyl)-2-(1-hydroxy-2-methylpropan-2-yl)-8,8-dimethyl-6-(2-((2R,5R)-5-methyl-2-(((R)-3-methylmorpholino)methyl)piperazin-1-yl)acetyl)-2,6,7,8-tetrahydro-1H-pyrrolo[2,3-e][1,2,4]triazolo[4,3-a]pyridin-1-one]",2.7,
36,,"Cc1nc2c(Cc3ccc(F)cc3)cc3c(n2n1)C(C)(C)CN3C(=O)CN1C[C@@H](C)NC[C@@H]1CN1CCOC[C@H]1C [Compound 36, 1-(4-(4-fluorobenzyl)-2,8,8-trimethyl-7,8-dihydro-6H-pyrrolo[2,3-e][1,2,4]triazolo[1,5-a]pyridin-6-yl)-2-((2R,5R)-5-methyl-2-(((R)-3-methylmorpholino)methyl)piperazin-1-yl)ethan-1-one]",2,
220,,"Cc1ncc(Cc2cc3c(n4ncnc24)C(C)(C)CN3C(=O)CN2C[C@@H](C)NC[C@@H]2CN2CCOC[C@H]2C)s1 [Compound 132, 1-(8,8-dimethyl-4-((2-methylthiazol-5-yl)methyl)-7,8-dihydro-6H-pyrrolo[2,3-e][1,2,4]triazolo[1,5-a]pyridin-6-yl)-2-((2R,5R)-5-methyl-2-(((R)-3-methylmorpholino)methyl)piperazin-1-yl)ethan-1-one]",56,
75,,"C[C@@H]1CN(CC(=O)N2CC(C)(C)c3c2cc(Cc2ccc(Cl)cc2)c2ncnn32)[C@@H](CN2CCOC[C@H]2C)CN1 [Compound 44, 1-(4-(4-chlorobenzyl)-8,8-dimethyl-7,8-dihydro-6H-pyrrolo[2,3-e][1,2,4]triazolo[1,5-a]pyridin-6-yl)-2-((2R,5R)-5-methyl-2-(((R)-3-methylmorpholino)methyl)piperazin-1-yl)ethan-1-one]",9,
130,,"C[C@@H]1CN(CC(=O)N2CC(C)(C)c3c2cc(Cc2ccc(F)cc2)c2nc(C(=O)N(C)C)nn32)[C@@H](CN2CCOC[C@H]2C)CN1 [Compound 251, 4-(4-fluorobenzyl)-N,N,8,8-tetramethyl-6-(2-((2R,5R)-5-methyl-2-(((R)-3-methylmorpholino)methyl)piperazin-1-yl)acetyl)-7,8-dihydro-6H-pyrrolo[2,3-e][1,2,4]triazolo[1,5-a]pyridine-2-carboxamide]",29.6,
140,,"C[C@@H]1CN(CC(=O)N2CC(C)(C)c3c2cc(Cc2ccc(F)cc2)c2nc(C(=O)NC4CC4)nn32)[C@@H](CN2CCOC[C@H]2C)CN1 [Compound 257, N-cyclopropyl-4-(4-fluorobenzyl)-8,8-dimethyl-6-(2-((2R,5R)-5-methyl-2-(((R)-3-methylmorpholino)methyl)piperazin-1-yl)acetyl)-7,8-dihydro-6H-pyrrolo[2,3-e][1,2,4]triazolo[1,5-a]pyridine-2-carboxamide]",11.6,
210,,"C[C@@H]1CN(CC(=O)N2CC(C)(C)c3c2cc([C@@H](O)c2ccc(F)cc2)c2ncnn32)[C@@H](CN2CCOC[C@H]2C)CN1 [Compound 133, 1-(4-((S)-(4-fluorophenyl)(hydroxy)methyl)-8,8-dimethyl-7,8-dihydro-6H-pyrrolo[2,3-e][1,2,4]triazolo[1,5-a]pyridin-6-yl)-2-((2R,5R)-5-methyl-2-(((R)-3-methylmorpholino)methyl)piperazin-1-yl)ethan-1-one]",56,
